Data: patent publication US20060142254A1, “Antipyretic preparation containing xylitol” (ROQUETTE FRERES, priority 2001, published 2006)

How the values were obtained:
[1] = tested on: rabbits having received a dose of endotoxins equal to 12 EU/kg; experiment: Pyrogen test in rabbits: lowering of the body temperature increase caused by intravenously injected endotoxins; assay type: in vivo, rabbit; conditions: xylitol 1.5 g/kg, ASPEGIC 100 mg/kg where present; for Difference compared with the positive control of contamination (%): lowering of the endotoxin-induced temperature increase versus Batch 2, endotoxins 12 EU/kg i.v., significant when greater than 5%; for Temperature increase (° C.): mean temperature difference, 3 rabbits per batch, endotoxins 12 EU/kg intravenously
From the text: Specifically, the pyrogen test in rabbits is the test described in the European Pharmacopoeia for verifying, in vivo, the apyrogenicity of certain molecules intended to be administered parenterally.
Thus, the applicant company, a producer of molecules intended to be administered parenterally, therefore used this test, which it has perfected, under the conditions described in the European Pharmacopoeia, in order to determine the body temperature-lowering effects of xylitol alone, and of xylitol combined with an antipyretic.
The experiment is carried out with batches of laboratory animals, in this instance here, rabbits.
The solutions to be injected are prepared in sterile water (water for injectable preparation—AGUETTANT).
The bottles of endotoxins (control standard Entotoxin or CSE—ENDOSAFE) contain 5 ml of endotoxins at 30 EU/ml with 120 ml of water for injectable preparation.
The contamination is calculated so as to observe a pyrogenic shock in the rabbit. This contamination is produced by intravenously injecting endotoxins in a proportion of 1.2 EU/ml, i.e. 12 EU/kg.
The antipyretic agent, in this instance aspirin, is prepared extemporaneously. 6.6 ml are added to 125 ml of endotoxins so as to obtain a dose equivalent to 100 mg/kg. The aspirin chosen is injectable ASPEGIC® (DL-lysine acetyl salicylate), manufactured by Laboratoires SYNTHELABO (LE PLESSIS ROBINSON), packed in proportion of 6 bottles of 2 g of powder and 6 vials of 5 ml of water for injectable preparation, for extemporaneous dissolution.
The xylitol is a batch of apyrogenic XYLISORB® manufactured by the applicant company. Apyrogenic dextrose monohydrate (marketed under the trademark LYCADEX® PF by the applicant company) is used as a control.
The rabbits are injected with a solution of xylitol at 150 g/l with water for injectable solution contaminated or not contaminated with the endotoxins. Five experiments are carried out with 3 rabbits per batch.

healthy rabbit = conditions: intravenous administration; cited from earlier work

Compound	Difference compared with the positive control of contamination (%) [1] [%]	Temperature increase (° C.) [1] [°C]	effect on body temperature of the laboratory animal (healthy rabbit)
CC(=O)Oc1ccccc1C(=O)O (racemic) [Batch 3, DL-lysine acetyl salicylate]	46	1.57	–
OC[C@@H](O)[C@H](O)[C@@H](O)CO [Batch 4, xylitol]	7.5	2.73	lowers the body temperature
methylephedrine	–	–	lowers the body temperature
